Measurements from patent US20230265151A1, “GIP/GLP1 CO-AGONIST COMPOUNDS” (priority 2020, published 2023).
Like-named read-outs stand apart in the source and are kept apart here.

Assays:
hGIPR = target: T1, hGIPR (Homo sapiens, UniProt P48546); experiment: Functional cAMP formation (HTRF) in HEK-293 clonal cells expressing hGIPR, 0.1% bovine casein, without or with 1.0% human serum albumin; assay type: cell-based; conditions: for EC50: cAMP
T1 construct: expressed in transfected cells
T1 sequence (P48546 22-466): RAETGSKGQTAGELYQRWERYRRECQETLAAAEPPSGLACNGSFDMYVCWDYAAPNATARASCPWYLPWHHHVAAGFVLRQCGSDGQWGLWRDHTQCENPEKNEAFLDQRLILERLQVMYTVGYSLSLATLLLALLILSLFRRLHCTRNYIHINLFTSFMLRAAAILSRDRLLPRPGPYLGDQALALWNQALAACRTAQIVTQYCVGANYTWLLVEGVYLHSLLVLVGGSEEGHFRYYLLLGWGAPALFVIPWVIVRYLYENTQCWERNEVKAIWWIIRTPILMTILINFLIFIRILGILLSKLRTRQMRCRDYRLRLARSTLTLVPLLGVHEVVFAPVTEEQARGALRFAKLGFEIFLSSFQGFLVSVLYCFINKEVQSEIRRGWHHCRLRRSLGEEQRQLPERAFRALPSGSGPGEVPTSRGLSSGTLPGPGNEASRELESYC
Procedure, shortened: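 Cells were stimulated with peptide for 30 min at 37° C, then lysed in buffer carrying cAMP-d2 and anti-cAMP Eu3+-cryptate for a competitive HTRF read after at least 60 min at room temperature. The 665/620 nm ratio was converted to nM cAMP against a standard curve.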

[1] = target: T2, human GIP receptor (hGIPR) (Homo sapiens, UniProt P48546); experiment: [125I]-GIP binding, SPA with membranes of CHO cells expressing hGIPR
T2 construct: expressed in transfected cells; crude membranes
T2 sequence (P48546 22-466): T1 sequence (P48546 22-466)

[2] = HEK293, 0.1% bovine casein and 1.0% human serum albumin, 37° C., percent of maximal response to GIP(1-42)NH2, read-out: hGIPR Emax, % ± SEM
[3] = HEK293, percent of maximal response to GIP(1-42)NH2, 37° C., 0.1% bovine casein, arithmetic mean, read-out: hGIPR Emax, % ± SEM
[4] = human GIPR, geometric mean (SEM, n), read-out: Binding Affinity Ki, nM (SEM, n) hGIPR

SMILES | Emax (hGIPR; [2]) [%] | Emax (hGIPR; [3]) [%] | Ki [1, 4] [nM] | Emax (hGIPR; HEK293, read-out: hGIPR Emax, % ± SEM, cAMP, 37° C., 0.1% bovine casein and 1.0% human serum albumin, percent of maximal response to GIP(1-42)NH2) [%] | Emax (hGIPR; HEK293, read-out: hGIPR Emax, % ± SEM, cAMP, 37° C., 0.1% bovine casein, percent of maximal response to GIP(1-42)NH2, arithmetic mean) [%] | EC50 (hGIPR; hGIPR EC50, nM (SEM, n), 37° C., 0.1% bovine casein (no human serum albumin), geometric mean) [nM] | EC50 (hGIPR; hGIPR EC50, nM (SEM, n), 37° C., 0.1% bovine casein and 1.0% human serum albumin, geometric mean (SEM, n)) [nM] | Ki [1] [nM] | EC50 (hGIPR; incubated at 37° C., 0.1% bovine casein (no human serum albumin), geometric mean, read-out: hGIPR EC50, nM (SEM, n)) [nM]
CC[C@H](C)[C@H](NC(=O)[C@H](CC(C)C)NC(=O)[C@](C)(Cc1ccc(O)cc1)NC(=O)[C@@H](CCC(=O)O)NC(=O)[C@@H](NC(=O)[C@H](Cc1ccccc1)NC(=O)[C@H](CCC(=O)O)NC(=O)C(C)(C)NC(=O)[C@H](CCC(N)=O)NC(=O)[C@H](C)NC(=O)[C@H](CCCCNC(=O)COCCOCCNC(=O)COCCOCCNC(=O)CC[C@H](NC(=O)CCCCCCCCCCCCC(=O)O)C(=O)O)NC(=O)[C@H](CCCN)NC(=O)[C@H](CC(=O)O)NC(=O)[C@H](CC(C)C)NC(=O)[C@](C)(CC(C)C)NC(=O)[C@@H](NC(=O)C(C)(C)NC(=O)[C@@H](NC(=O)[C@H](CC(=O)O)NC(=O)[C@H](CO)NC(=O)[C@@H](NC(=O)[C@](C)(Cc1ccccc1F)NC(=O)[C@@H](NC(=O)CNC(=O)[C@H](CCC(=O)O)NC(=O)C(C)(C)NC(=O)[C@@H](N)Cc1ccc(O)cc1)[C@@H](C)O)[C@@H](C)O)C(C)C)[C@@H](C)CC)[C@@H](C)CC)C(=O)N[C@@H](CCC(=O)O)C(=O)NCC(=O)NCC(=O)N[C@@H](CCCCNC(=O)COCCOCCNC(=O)COCCOCCNC(=O)CC[C@H](NC(=O)CCCCCCCCCCCCC(=O)O)C(=O)O)C(=O)N[C@@H](CO)C(=O)N[C@@H](CO)C(=O)NCC(=O)N[C@@H](C)C(=O)N1CCC[C@H]1C(=O)N1CCC[C@H]1C(=O)N1CCC[C@H]1C(=O)N[C@@H](CO)C(N)=O [Example 91] | 91.9 | 92.8 ± 4.69 | 0.126 |  |  |  |  |  | 
CC[C@H](C)[C@H](NC(=O)[C@H](CC(C)C)NC(=O)[C@](C)(Cc1ccc(O)cc1)NC(=O)[C@H](CCCCNC(=O)CC[C@H](NC(=O)COCCOCCNC(=O)COCCOCCNC(=O)CC[C@H](NC(=O)CCCCCCCCCOc1ccc(C(=O)O)cc1)C(=O)O)C(=O)O)NC(=O)[C@@H](NC(=O)[C@H](Cc1ccccc1)NC(=O)[C@H](CCCN)NC(=O)C(C)(C)NC(=O)[C@H](CCC(N)=O)NC(=O)[C@H](C)NC(=O)[C@H](CCC(N)=O)NC(=O)[C@H](CCCN)NC(=O)[C@H](CC(=O)O)NC(=O)[C@H](CC(C)C)NC(=O)[C@](C)(CC(C)C)NC(=O)[C@@H](NC(=O)C(C)(C)NC(=O)[C@H](Cc1ccncc1)NC(=O)[C@H](CC(=O)O)NC(=O)[C@H](CO)NC(=O)[C@@H](NC(=O)[C@](C)(Cc1ccccc1F)NC(=O)[C@@H](NC(=O)CNC(=O)[C@H](CCC(=O)O)NC(=O)C(C)(C)NC(=O)[C@@H](N)Cc1ccc(O)cc1)[C@@H](C)O)[C@@H](C)O)[C@@H](C)CC)[C@@H](C)CC)C(=O)N[C@@H](CCCCNC(=O)CC[C@H](NC(=O)COCCOCCNC(=O)COCCOCCNC(=O)CC[C@H](NC(=O)CCCCCCCCCOc1ccc(C(=O)O)cc1)C(=O)O)C(=O)O)C(=O)NCC(=O)NCC(=O)N1CCC[C@H]1C(=O)N[C@@H](CO)C(=O)N[C@@H](CO)C(=O)NCC(=O)N[C@@H](C)C(=O)N1CCC[C@H]1C(=O)N1CCC[C@H]1C(=O)N1CCC[C@H]1C(=O)N[C@@H](CO)C(N)=O [Example 483] |  |  |  | 92.6 | 97.4 | 0.0138 | 0.297 | 0.0236 | 
CC[C@H](C)[C@H](NC(=O)[C@H](CC(C)C)NC(=O)[C@](C)(Cc1ccc(O)cc1)NC(=O)[C@@H](CCC(=O)O)NC(=O)[C@@H](NC(=O)[C@H](Cc1ccccc1)NC(=O)[C@H](CCC(=O)O)NC(=O)C(C)(C)NC(=O)[C@H](CCC(N)=O)NC(=O)[C@H](C)NC(=O)[C@H](CCCCNC(=O)COCCOCCNC(=O)COCCOCCNC(=O)CC[C@H](NC(=O)CCCCCCCCCCCCC(=O)O)C(=O)O)NC(=O)[C@H](CCCN)NC(=O)[C@H](CC(=O)O)NC(=O)[C@H](CC(C)C)NC(=O)[C@](C)(CC(C)C)NC(=O)[C@@H](NC(=O)[C@](C)(CO)NC(=O)[C@@H](NC(=O)[C@H](CC(=O)O)NC(=O)[C@H](CO)NC(=O)[C@@H](NC(=O)[C@](C)(Cc1ccccc1F)NC(=O)[C@@H](NC(=O)CNC(=O)[C@H](CCC(=O)O)NC(=O)C(C)(C)NC(=O)[C@@H](N)Cc1ccc(O)cc1)[C@@H](C)O)[C@@H](C)O)C(C)C)[C@@H](C)CC)[C@@H](C)CC)C(=O)N[C@@H](CCC(=O)O)C(=O)NCC(=O)NCC(=O)N[C@@H](CCCCNC(=O)COCCOCCNC(=O)COCCOCCNC(=O)CC[C@H](NC(=O)CCCCCCCCCCCCC(=O)O)C(=O)O)C(=O)N[C@@H](CO)C(=O)N[C@@H](CO)C(=O)NCC(=O)N[C@@H](C)C(=O)N1CCC[C@H]1C(=O)N1CCC[C@H]1C(=O)N1CCC[C@H]1C(=O)N[C@@H](CO)C(N)=O [Example 212] | 81 | 100 | 0.161 |  |  |  |  |  | 0.0385
